Target: T1, hDGAT1 (Homo sapiens, UniProt O75907)
T1 sequence (O75907 1-488): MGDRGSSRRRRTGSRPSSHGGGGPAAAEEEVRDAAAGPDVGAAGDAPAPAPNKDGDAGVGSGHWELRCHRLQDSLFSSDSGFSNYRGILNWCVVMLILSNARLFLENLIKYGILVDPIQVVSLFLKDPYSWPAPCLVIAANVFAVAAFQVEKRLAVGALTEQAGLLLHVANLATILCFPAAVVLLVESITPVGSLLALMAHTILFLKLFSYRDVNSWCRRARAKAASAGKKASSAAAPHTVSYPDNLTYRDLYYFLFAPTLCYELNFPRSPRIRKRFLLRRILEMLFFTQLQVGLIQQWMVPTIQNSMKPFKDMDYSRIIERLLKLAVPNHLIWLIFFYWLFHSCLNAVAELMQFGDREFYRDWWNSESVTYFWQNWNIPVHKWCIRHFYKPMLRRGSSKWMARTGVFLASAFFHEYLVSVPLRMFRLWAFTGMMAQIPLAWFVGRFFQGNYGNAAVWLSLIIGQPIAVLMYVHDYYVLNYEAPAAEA
Assay: In-vitro DGAT1 assay (14C oleoyl CoA, hDGAT1 microsomes from Sf9 cells)
Conditions: at 1 μM

| Compound | % Inhibition of hDGAT1 |
| --- | --- |
| 3-(1-Oxo-6-(4-(4-(trifluoromethyl)benzamido)phenyl)isoindolin-2-yl)cyclo hexanecarboxylic acid [Example 551] | ++ (>50% Inhibition) |

Same assay, conditions: read-out: % Inhibition of hDGAT1

| Compound | inhibition at 1 µM [%] |
| --- | --- |
| CCCCCc1ccc(C(=O)Nc2ccc(-c3ccc4c(c3)C(=O)N([C@H](C(=O)O)C(C)C)C4)c(OC)c2)cc1 [Example 462, (S)-2-(6-(2-Methoxy-4-(4-pentylbenzamido)phenyl)-1-oxoisoindolin-2-yl)-3-methylbutanoic acid] | 10 to 50 |
| CC(C)[C@@H](C(=O)O)N1Cc2ccc(-c3ccc(NC(=O)c4ccc(OC(F)(F)F)cc4)cc3Cl)cc2C1=O [Example 488, (S)-2-(6-(2-Chloro-4-(4-(trifluoromethoxy)benzamido)phenyl)-1-oxoisoindolin-2-yl)-3-methylbutanoic acid] | > 50 |
| CC(C)[C@@H](C(=O)O)N1Cc2ccc(-c3ccc(NC(=O)c4ncc(-c5ccccc5)s4)cn3)cc2C1=O [Example 637, (S)-3-Methyl-2-(1-oxo-6-(5-(5-phenylthiazole-2-carboxamido)pyridin-2-yl)isoindolin-2-yl)butanoic acid] | > 50 |
| CC(C)[C@@H](C(=O)O)N1Cc2ccc(-c3ccc(NC(=O)c4ccc(Cl)cc4Cl)cc3)cc2C1=O [Example 134, (S)-2-(6-(4-(2,4-Dichlorobenzamido)phenyl)-1-oxoisoindolin-2-yl)-3-methyl butanoic acid] | 10 to 50 |
| CC(C)[C@@H](C(=O)O)N1Cc2ccc(-c3ccc(NC(=O)c4ccc(C(C)(C)C)cc4)cn3)cc2C1=O [Example 404, (S)-2-(6-(5-(4-tert-Butylbenzamido)pyridin-2-yl)-1-oxoisoindolin-2-yl)-3-methyl butanoic acid] | > 50 |
| CC(C)[C@@H](C(=O)O)N1Cc2ccc(-c3ccc(NC(=O)c4cc(-c5ccc(F)cc5)no4)cn3)cc2C1=O [Example 639, (S)-2-(6-(5-(3-(4-Fluorophenyl)isoxazole-5-carboxamido)pyridin-2-yl)-1-oxoisoindolin-2-yl)-3-methylbutanoic acid] | > 50 |
| CC(C)[C@@H](C(=O)O)N1Cc2cc(-c3ccc(NC(=S)Nc4ccccc4C(F)(F)F)cc3)ccc2C1=O [Example 271, (S)-3-Methyl-2-(1-oxo-5-(4-(3-(2-(trifluoromethyl)phenyl)thioureido)phenyl)isoindolin-2-yl)butanoic acid] | 10 to 50 |
| CC(C)[C@@H](C(=O)O)N1Cc2ccc(-c3ccc(NC(=S)Nc4ccc(Cl)cc4)cc3)cc2C1=O [Example 62, (S)-2-(6-(4-(3-(4-Chlorophenyl)thioureido)phenyl)-1-oxoisoindolin-2-yl)-3-methyl butanoic acid] | 10 to 50 |
| CC(C)[C@@H](C(=O)O)N1Cc2ccc(-c3ccc(NC(=O)c4nc(-c5ccccc5)oc4C(F)(F)F)cn3)cc2C1=O [Example 657, (S)-3-Methyl-2-(1-oxo-6-(5-(2-phenyl-5-(trifluoromethyl)oxazole-4-carboxamido)pyridin-2-yl)isoindolin-2-yl)butanoic acid] | > 50 |
| CC(C)[C@@H](C(=O)O)N1Cc2cc(-c3ccc(NC(=O)Nc4cccc(C(F)(F)F)c4)cc3)ccc2C1=O [Example 247, (S)-3-Methyl-2-(1-oxo-5-(4-(3-(3-(trifluoromethyl)phenyl)ureido)phenyl)isoindolin-2-yl)butanoic acid] | > 50 |
| Cc1ccc(NC(=O)Nc2ccc(-c3ccc4c(c3)C(=O)N([C@H](C(=O)O)C(C)C)C4)nc2)cc1C [Example 398, (S)-2-(6-(5-(3-(3,4-Dimethylphenyl)ureido)pyridin-2-yl)-1-oxoisoindolin-2-yl)-3-methylbutanoic acid] | > 50 |
| O=C(Nc1ccc(-c2ccc3c(c2)C(=O)N([C@@H]2CCC[C@@H]2C(=O)O)C3)cc1)c1ccc(Cl)cc1 [Example 596, (1S,2R)-2-(6-(4-(4-Chlorobenzamido)phenyl)-1-oxoisoindolin-2-yl)cyclopentane carboxylic acid] | > 50 |
